Values joined by “and” are separate entries in the source; they are usually repeats but may differ in a detail not shown here. Equal values may be shown once.
Molecular target: PIK3CA (human) (UniProt P42336)
Test: Inhibition of PIK3CA Kinase Activity

Chain of PIK3CA (human) (P42336 whole entry, looked up): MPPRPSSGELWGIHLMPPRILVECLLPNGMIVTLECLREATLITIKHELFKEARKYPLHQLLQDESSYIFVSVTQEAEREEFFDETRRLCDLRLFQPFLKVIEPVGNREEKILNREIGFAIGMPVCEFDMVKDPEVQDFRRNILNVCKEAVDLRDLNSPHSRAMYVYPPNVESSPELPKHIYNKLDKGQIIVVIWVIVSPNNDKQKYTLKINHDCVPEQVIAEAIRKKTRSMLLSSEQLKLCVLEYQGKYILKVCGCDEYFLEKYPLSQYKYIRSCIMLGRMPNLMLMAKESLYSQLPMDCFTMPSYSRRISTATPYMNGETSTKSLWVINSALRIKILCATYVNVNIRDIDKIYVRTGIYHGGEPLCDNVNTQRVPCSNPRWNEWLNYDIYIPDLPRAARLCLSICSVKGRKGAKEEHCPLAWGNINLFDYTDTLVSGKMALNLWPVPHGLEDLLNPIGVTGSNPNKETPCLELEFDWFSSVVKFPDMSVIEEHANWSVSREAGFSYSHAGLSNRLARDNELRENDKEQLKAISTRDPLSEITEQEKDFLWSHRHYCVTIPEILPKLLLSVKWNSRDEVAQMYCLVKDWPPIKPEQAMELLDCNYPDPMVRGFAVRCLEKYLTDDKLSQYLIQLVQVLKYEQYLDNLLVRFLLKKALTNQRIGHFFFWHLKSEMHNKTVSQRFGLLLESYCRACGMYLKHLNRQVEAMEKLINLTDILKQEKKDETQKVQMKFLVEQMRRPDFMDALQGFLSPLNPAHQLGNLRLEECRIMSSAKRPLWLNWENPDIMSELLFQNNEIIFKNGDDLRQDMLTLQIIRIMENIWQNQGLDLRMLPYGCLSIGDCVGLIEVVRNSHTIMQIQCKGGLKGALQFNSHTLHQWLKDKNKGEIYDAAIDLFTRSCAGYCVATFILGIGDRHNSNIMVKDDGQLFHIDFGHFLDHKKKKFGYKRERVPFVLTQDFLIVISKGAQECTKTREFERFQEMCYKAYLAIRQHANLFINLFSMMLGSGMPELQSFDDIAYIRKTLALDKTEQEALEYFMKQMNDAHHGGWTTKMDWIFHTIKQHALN

SMILES	IC50
Cc1nc(-c2cn3c(n2)-c2ccc(-c4cnc(C)n4C4CCCN(C(C)C)C4)cc2OCC3)n(C(C)C)n1 (stereo unspecified)	145 nM
CCN1CCN(C(C)c2cc3c(cc2F)OCCn2cc(-c4nc(C)nn4C(C)C)nc2-3)CC1 (stereo unspecified)	86.8 nM
Cc1nc(-c2cn3c(n2)-c2ccc(-c4ccnn4C4CCCN(C5(C)COC5)C4)cc2OCC3)n(C(C)C)n1 (stereo unspecified)	44.3 nM
Cc1nc(-c2cn3c(n2)-c2ccc(N4CCCC45CCCN(C)C5)cc2OCC3)n(C(C)C)n1 (stereo unspecified)	12.9 nM and 5.23 nM and 16.8 nM
Cc1nc(-c2cn3c(n2)-c2ccc(OC4(C)CNC4)cc2OCC3)n(C(C)C)n1	6.2 nM
Cc1nc(-c2cn3c(n2)-c2ccc(OC4(CC5CC5)CNC4)cc2OCC3)n(C(C)C)n1	69.3 nM
Cc1nc(-c2cn3c(n2)-c2ccc(OC4(CC5CC5)CN(C(C)C)C4)cc2OCC3)n(C(C)C)n1	70.7 nM
Cc1nc(-c2cn3c(n2)-c2cc([C@@H](C)N4CCN(C(C)(C)C)CC4)c(F)cc2OCC3)n(C(C)C)n1	372 nM
Cc1nc(-c2cn3c(n2)-c2cc(-c4ccnn4[C@@H]4CCCN(C(C)C)C4)c(F)cc2OCC3)n(C(C)C)n1	11.4 nM
Cc1nc(-c2cn3c(n2)-c2ccc(-c4cnn(C)c4C4CC(N(C)C(C)C)CCO4)cc2OCC3)n(C(C)C)n1 (stereo unspecified)	219 nM and 49.8 nM and 81.2 nM
CC(C)n1ncnc1-c1cn2c(n1)-c1cc(CN3CCN(C(C)(C)C)CC3)ccc1OCC2	53.6 nM
Cc1nc(-c2cn3c(n2)-c2ccc(OC4(CN5CCN(C)CC5)CC4)cc2OCC3)n(C(C)C)n1	86.4 nM
Cc1nc(-c2cn3c(n2)-c2ccc(-c4ccnn4C4CCCN(C(C)(C)CO)C4)cc2OCC3)n(C(C)C)n1 (stereo unspecified)	14.4 nM
CC(C)n1nc(N)nc1-c1cn2c(n1)-c1ccc(-c3ccnn3C3CCN(C)CC3)cc1OCC2	38.5 nM
Cc1nc(-c2cn3c(n2)-c2ccc(-c4cnn(C)c4C4CCCN(C(C)C)C4)cc2OCC3)n(C(C)C)n1 (stereo unspecified)	57.7 nM
Cc1nc(-c2cn3c(n2)-c2ccc(-c4cnn(C)c4[C@H]4CCCN(C(C)C)C4)cc2OCC3)n(C(C)C)n1	20.7 nM
Cc1nc(-c2cn3c(n2)-c2ccc(OC4(c5ccccc5)CN(C(C)C)C4)cc2OCC3)n(C(C)C)n1	105 nM
Cc1nc(-c2cn3c(n2)-c2cc([C@H](C)N4CCN(C(C)(C)C)CC4)c(C)cc2OCC3)n(C(C)C)n1	24.1 nM
CC(C)n1ncnc1-c1cn2c(n1)-c1cc(C(=O)N3CCN(C(C)(C)C)CC3)ccc1OCC2	24.9 nM
Cc1nc(-c2cn3c(n2)-c2ccc(N4CCC4C4CCN(C(C)C)CC4)cc2OCC3)n(C(C)C)n1 (stereo unspecified)	15.1 nM
Cc1nc(-c2cn3c(n2)-c2cc([C@H](C)N4CCN(CC(C)(C)O)CC4)c(F)cc2OCC3)n(C(C)C)n1	724 nM

SMILES	IC50
Cc1nc(-c2cn3c(n2)-c2cc(-c4cnn(C)c4C4CCCN(C(C)C)C4)c(F)cc2OCC3)n(C(C)C)n1 (stereo unspecified)	20 nM and 105 nM
Cc1nc(-c2cn3c(n2)-c2ccc(N4CCC[C@@H]4C4CCN(C(C)C)CC4)cc2OCC3)n(C(C)C)n1	21.9 nM
Cc1nc(-c2cn3c(n2)-c2cc([C@@H](C)N4CCN(C(C)C)CC4)c(F)cc2OCC3)n(C(C)C)n1	169 nM
Cc1nc(-c2cn3c(n2)-c2ccc(-c4ncnn4C4CCN(C(C)(C)C)CC4)cc2OCC3)n(C(C)C)n1	837 nM
Cc1nc(-c2cn3c(n2)-c2ccc(OC4CC(C)CN(C(C)C)C4)cc2OCC3)n(C(C)C)n1 (stereo unspecified)	32.8 nM
CC(C)n1nc(N)nc1-c1cn2c(n1)-c1ccc(-c3ccnn3C3CCN(C(C)(C)C)CC3)cc1OCC2	80.9 nM
Cc1nc(-c2cn3c(n2)-c2cnc(-c4cnn(C)c4C4CCCN(C(C)C)C4)cc2OCC3)n(C(C)C)n1 (stereo unspecified)	9.19 nM
Cc1nc(-c2cn3c(n2)-c2ccc(-c4cnn(C(C)C)c4CN4CCN(C(C)(C)C)CC4)cc2OCC3)n(C(C)C)n1	111 nM
Cc1nc(-c2cn3c(n2)-c2cc([C@@H](C)N4CCN(C(C)C)CC4)c(C)cc2OCC3)n(C(C)C)n1	90 nM
Cc1nc(-c2cn3c(n2)-c2ccc(-c4ccnn4C4CCN(C(C)(C)C)CC4)cc2OCC3)n(C(C)C)n1	44.8 nM
Cc1nc(-c2cn3c(n2)-c2cc([C@@H](C)N4CCN(C(C)(C)CO)CC4)c(F)cc2OCC3)n(C(C)C)n1	263 nM
Cc1nc(-c2cn3c(n2)-c2cc(C(C)N4CCN(CC(C)(C)O)CC4)c(C)cc2OCC3)n(C(C)C)n1 (stereo unspecified)	76.2 nM
Cc1nc(-c2cn3c(n2)-c2ccc(-c4cnn(C)c4C4CCCCN4CC(C)(C)O)cc2OCC3)n(C(C)C)n1 (stereo unspecified)	11.2 nM
CCN1CCC(C2CCCN2c2ccc3c(c2)OCCn2cc(-c4nc(C)nn4C(C)C)nc2-3)CC1 (stereo unspecified)	18.9 nM
Cc1nc(-c2cn3c(n2)-c2ccc(-c4ccnn4C4CCN(C(C)C)CC4)cc2OCC3)n(C(C)C)n1	33.4 nM
Cc1nc(-c2cn3c(n2)-c2cc(C(C)N4CCN(C5COC5)CC4)c(C)cc2OCC3)n(C(C)C)n1 (stereo unspecified)	126 nM
Cc1nc(-c2cn3c(n2)-c2cc(C(O)C4CCN(C)CC4)ccc2OCC3)n(C(C)C)n1 (stereo unspecified)	193 nM
Cc1nc(-c2cn3c(n2)-c2ccc(-c4ccnn4[C@H]4CCCN(C(C)(C)CO)C4)cc2OCC3)n(C(C)C)n1	43 nM
Cc1nc(-c2cn3c(n2)-c2ccc(N4CCC[C@H]4CN4CCCC4)cc2OCC3)n(C(C)C)n1	6.32 nM
Cc1nc(-c2cn3c(n2)-c2cc(C(C)N4CCN(C(C)(C)C)CC4)c(F)cc2OCC3)n(C(C)C)n1 (stereo unspecified)	250 nM
Cc1nc(-c2cn3c(n2)-c2ccc(-c4cnn(C)c4C4CCCN(C(C)(C)CO)C4)cc2OCC3)n(C(C)C)n1 (stereo unspecified)	30.9 nM and 92.2 nM and 32 nM

SMILES	IC50
Cc1nc(-c2cn3c(n2)-c2cc([C@H](C)N4CCN(C(C)C)CC4)c(F)cc2OCC3)n(C(C)C)n1	59.9 nM
Cc1nc(-c2cn3c(n2)-c2ccc(N4CCC4C4CCN(C)CC4)cc2OCC3)n(C(C)C)n1 (stereo unspecified)	21.5 nM and 45.4 nM and 11.8 nM
Cc1nc(-c2cn3c(n2)-c2cc([C@@H](C)N4CCN(C(C)(C)C)CC4)ncc2OCC3)n(C(C)C)n1	80.4 nM
CC(C)n1ncnc1-c1cn2c(n1)-c1ccc(-c3ccccc3S(N)(=O)=O)cc1OCC2	242 nM
COc1cc2c(cc1[C@@H](C)N1CCN(C(C)(C)C)CC1)-c1nc(-c3nc(C)nn3C(C)C)cn1CCO2	97.9 nM and 47.8 nM
Cc1nc(-c2cn3c(n2)-c2ccc(-c4cnn(C)c4N4CCN(C)[C@H](C(C)C)C4)cc2OCC3)n(C(C)C)n1	2.34 nM
CC(C)n1nc(CO)nc1-c1cn2c(n1)-c1ccc(-c3ccnn3C3CCN(C)CC3)cc1OCC2	38.5 nM
CCN(CC)C1CCOC(c2c(-c3ccc4c(c3)OCCn3cc(-c5nc(C)nn5C(C)C)nc3-4)cnn2C)C1 (stereo unspecified)	64.5 nM and 65.8 nM and 54.8 nM
Cc1nc(-c2cn3c(n2)-c2ccc(-c4ccnn4C4CCCN(Cc5ccccc5)C4)cc2OCC3)n(C(C)C)n1 (stereo unspecified)	186 nM
CC(C)n1ncnc1-c1cn2c(n1)-c1cnc(N3CCCC3C3CCN(C)CC3)cc1OCC2 (stereo unspecified)	13.9 nM
Cc1nc(-c2cn3c(n2)-c2cc([C@H](C)N4CCN(C(C)(C)CO)CC4)c(F)cc2OCC3)n(C(C)C)n1	422 nM
Cc1nc(-c2cn3c(n2)-c2cc([C@H](C)N4CCN(C(C)(C)C)CC4)c(F)cc2OCC3)n(C(C)C)n1	247 nM
Cc1nc(-c2cn3c(n2)-c2ccc(-c4cnn(C(C)C)c4CN4CCN(C)CC4)cc2OCC3)n(C(C)C)n1	112 nM
Cc1nc(-c2cn3c(n2)-c2cc(C(C)N4CCN(C)CC4)c(F)cc2OCC3)n(C(C)C)n1 (stereo unspecified)	49.1 nM
Cc1nc(-c2cn3c(n2)-c2ccc(-c4cnn(C)c4[C@@H]4CCCN(C(C)C)C4)cc2OCC3)n(C(C)C)n1	58.8 nM
Cc1nc(-c2cn3c(n2)-c2cc(-c4cnn(C)c4C4CC(N(C)C)CCO4)c(F)cc2OCC3)n(C(C)C)n1 (stereo unspecified)	9.57 nM
Cc1nc(-c2cn3c(n2)-c2ccc(N4CCC[C@@H]4CN4CCCC4)cc2OCC3)n(C(C)C)n1	22 nM
Cc1cc2c(cc1-c1ccnn1C1CCN(C)CC1)OCCn1cc(-c3ncnn3C(C)C)nc1-2	173 nM
Cc1nc(-c2cn3c(n2)-c2cc(-c4ccnn4[C@@H]4CCCN(C(C)(C)CO)C4)c(F)cc2OCC3)n(C(C)C)n1	47.4 nM and 19.3 nM
Cc1nc(-c2cn3c(n2)-c2ccc(N4CCC4[C@@H]4CCCN(C(C)C)C4)cc2OCC3)n(C(C)C)n1 (stereo partly specified)	3.41 nM
Cc1nc(-c2cn3c(n2)-c2cc([C@H](C)N4CCN(C(C)(C)CO)CC4)ncc2OCC3)n(C(C)C)n1	180 nM

SMILES	IC50
Cc1nc(-c2cn3c(n2)-c2cc([C@@H](C)N4CCN(C(C)(C)C)CC4)c(C)cc2OCC3)n(C(C)C)n1	52.2 nM
Cc1nc(-c2cn3c(n2)-c2cc(C(=O)N4CCN(C(C)(C)CO)CC4)c(F)cc2OCC3)n(C(C)C)n1	172 nM
Cc1nc(-c2cn3c(n2)-c2ccc(OC4(CC(C)C)CN(C(C)C)C4)cc2OCC3)n(C(C)C)n1	278 nM
COc1cc2c(cc1[C@H](C)N1CCN(C(C)(C)C)CC1)-c1nc(-c3nc(C)nn3C(C)C)cn1CCO2	62 nM and 90.9 nM
Cc1nc(-c2cn3c(n2)-c2cc([C@H](C)N4CCN(C(C)(C)C)CC4)ncc2OCC3)n(C(C)C)n1	217 nM
Cc1nc(-c2cn3c(n2)-c2cc([C@@H](C)N4CCN(C(C)(C)CO)CC4)ncc2OCC3)n(C(C)C)n1	219 nM
Cc1nc(-c2cn3c(n2)-c2cc([C@@H](C)N4CCN(CC(C)(C)O)CC4)c(F)cc2OCC3)n(C(C)C)n1	182 nM
Cc1nc(-c2cn3c(n2)-c2ccc(-c4cn(C)nc4C4CCCN(C(C)C)C4)cc2OCC3)n(C(C)C)n1 (stereo unspecified)	28.4 nM
Cc1nc(-c2cn3c(n2)-c2ccc(-n4ccnc4C4CCCN(C(C)C)C4)cc2OCC3)n(C(C)C)n1 (stereo unspecified)	125 nM
CC(Oc1ccc2c(c1)OCCn1cc(-c3ncnn3C(C)C)nc1-2)C1CCN(C(C)C)CC1 (stereo unspecified)	6.36 nM
Cc1nc(-c2cn3c(n2)-c2cc(-c4ccnn4[C@@H]4CCCN(C5COC5)C4)c(F)cc2OCC3)n(C(C)C)n1	36.7 nM
Cc1nc(-c2cn3c(n2)-c2ccc(N4CCC[C@H]4C4CCN(C(C)C)CC4)cc2OCC3)n(C(C)C)n1	20.3 nM
Cc1nc(-c2cn3c(n2)-c2cc(C(=O)N4CCN(C(C)(C)C)CC4)c(F)cc2OCC3)n(C(C)C)n1	191 nM
Cc1nc(-c2cn3c(n2)-c2cc(-c4ccnn4[C@H]4CCCN(C5COC5)C4)c(F)cc2OCC3)n(C(C)C)n1	207 nM
Cc1nc(-c2cn3c(n2)-c2ccc(N4CCCC4C4CCN(S(C)(=O)=O)CC4)cc2OCC3)n(C(C)C)n1 (stereo unspecified)	14.6 nM
Cc1nc(-c2cn3c(n2)-c2ccc(N4CCCC4CN(C)C)cc2OCC3)n(C(C)C)n1 (stereo unspecified)	14 nM and 6.62 nM
Cc1nc(-c2cn3c(n2)-c2ccc(N4CCCC4C4CCN(CC(C)(C)O)CC4)cc2OCC3)n(C(C)C)n1 (stereo unspecified)	74.8 nM and 49.2 nM
Cc1nc(-c2cn3c(n2)-c2ccc(-c4ccnn4C4CC(C)N(C)C(C)C4)cc2OCC3)n(C(C)C)n1 (stereo unspecified)	100 nM

— the Kinase Knowledgebase extract (Sharma et al. 2016)
